Experimental data from patent publication US20250206722A1, “SMALL MOLECULE INHIBITORS OF TEA DOMAIN FAMILY MEMBERS” (The Scripps Research Institute, priority 2022, published 2025).

Legend:
Format in all cases: cell-based
NCI-H226 cells [1] = experiment: NCI-H226 proliferation assay (in house); details: Homo sapiens, 120 h, 5 days, Cell TiterGlo, 20-point 1:2 dilution from 20 μM
In short: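 Viability by CellTiter-Glo luminescence after 5-day compound exposure at 37 °C, 5% CO2. Compounds added 24 h post-seeding (500 cells/well, RPMI 1640 with 10% FBS) as 20-point, 2-fold series from 20 μM final, triplicate wells.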

[2] = tested on: transcriptional activity of TEADs; experiment: TEAD reporter assay (MCF7 TEAD-LUC reporter cells); details: Homo sapiens, 24 hours, BrightGlo luminescence
In short: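 Luminescence (BrightGlo) was read after 24 h of compound treatment at 37 °C, 5 % CO2. Cells had been seeded at 5,000 per well in DMEM with 10 % FBS and insulin and rested 24 h first. Dosing used 20 points, 1:2 dilution from 20 μM final, triplicates.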

NCI-H226 cells [3] = experiment: NCI-H226 proliferation assay (Wuxi AppTec); details: Homo sapiens, 168 h, 7 days, CellTiter-Glo, top dose 10, 3-fold dilution, 9 doses
Procedure: […] Proliferation Assay (From Wuxi AppTec CO.):
Day −1: Seeding cells • (1) Equilibrate cell culture medium to 37° C. • (2) Remove and discard the culture medium. • (3) Briefly rinse the cell layer with PBS to remove all traces of serum that contains […]. • (4) Add 2-3 mL of Trypsin-EDTA solution to flask and observe cells under an inverted microscope until cell layer is dispersed. • (5) Add 6-8 mL of growth medium to terminate the digestion of Trypsin/EDTA. • (6) Centrifuge the mixture (Trypsin EDTA and the growth medium) at 1000 rpm for 5 mins. • (7) Discard the supernatant, suspend the cell precipitation with the fresh growth medium, then take 1 mL the cell suspension to count cells with Vi-cell XR cell viability analyzer. • (8) Adjust the cell density to 500 cells/well for 384-well plates. • (9) Add 50 µL/well volume cell suspension to the assay plate. • (10) Add […] media to the control columns. • (11) Incubate the plate at 37° C., 5% CO2 for overnight. Day 0: Compounds treatment • (1) Add cpds to each well by Tecan HP D300E. The top dose is […], 3-fold dilution and 9 doses. DMSO final concentration will be normalized to 0.2%. • (2) Incubate the assay plate at 37° C., 5% CO2 for 7 days. Day 7: Plate read • (1) Equilibrate the assay plate to the room temperature for nearly 30 minutes. • (2) Add […] CellTiter-Glo reagent to each well and shake the plate for 1 min, incubate 10 min and keep them from light. • (3) Detect the plate by EnVision. Data analysis:
Max: Average of the DMSO group Min: Average of medium group.

| IC50 (NCI-H226 cells [1]) [µM] | IC50 [2] [µM] | IC50 (NCI-H226 cells [3]) [µM] | SMILES |
| --- | --- | --- | --- |
| 0.012 | 0.0032 | 0.042 | C=CC(=O)N1CCN(c2ccnnc2Nc2ccc(C(F)(F)F)cc2)CC1 [Example 119, 1-(4-(3-((4-(trifluoromethyl)phenyl)amino)pyridazin-4-yl)piperazin-1-yl)prop-2-en-1-one] |
| 0.364 | 0.0191 | 0.339 | C=CC(=O)N1CCC(c2cncnc2Oc2ccc(C(F)(F)F)nc2)CC1 [Example 126, 1-(4-(4-((6-(trifluoromethyl)pyridin-3-yl)oxy)pyrimidin-5-yl)piperidin-1-yl)prop-2-en-1-one] |
| 0.179 | 0.0016 | 0.082 | C=CC(=O)N1CCN(c2nc(C)ncc2Nc2ccc(C(F)(F)F)cc2)CC1 [Example 128, 1-(4-(2-methyl-5-((4-(trifluoromethyl)phenyl)amino)pyrimidin-4-yl)piperazin-1-yl)prop-2-en-1-one] |
| 0.104 | 0.0012 | 0.137 | C=CC(=O)N1CC=C(c2cnc(C)nc2Oc2ccc(C(F)(F)F)nc2)CC1 [Example 129, 1-(4-(2-methyl-4-((6-(trifluoromethyl)pyridin-3-yl)oxy)pyrimidin-5-yl)-3,6-dihydropyridin-1(2H)-yl)prop-2-en-1-one] |
| 2.4 | 0.054 | 0.134 | C=CC(=O)N1CCC(c2ncccc2Oc2ccc(C(F)(F)F)nc2)CC1 [Example 138, 1-(4-(3-((6-(trifluoromethyl)pyridin-3-yl)oxy)pyridin-2-yl)piperidin-1-yl)prop-2-en-1-one] |
| 0.029 | 0.0024 | 0.017 | C=CC(=O)N1CC=C(c2cccnc2Nc2ccc(C(F)(F)F)nc2)CC1 [Example 145, 1-(2-((6-(trifluoromethyl)pyridin-3-yl)amino)-3′,6′-dihydro-[3,4′-bipyridin]-1′(2′H)-yl)prop-2-en-1-one] |
| 0.034 | 0.0014 | 0.065 | C=CC(=O)N1CC=C(c2cccnc2Oc2ccc(C(F)(F)F)nc2)CC1 [Example 153, 1-(2-((6-(trifluoromethyl)pyridin-3-yl)oxy)-3′,6′-dihydro-[3,4′-bipyridin]-1′(2′H)-yl)prop-2-en-1-one] |
| 0.05 | 0.0029 | 0.02 | C=C(F)C(=O)N1CC=C(c2cccnc2Oc2ccc(C(F)(F)F)nc2)CC1 [Example 154, 2-fluoro-1-(2-((6-(trifluoromethyl)pyridin-3-yl)oxy)-3′,6′-dihydro-[3,4′-bipyridin]-1′(2′H)-yl)prop-2-en-1-one] |
| 0.015 | 0.0018 | 0.018 | C=CC(=O)N1CCC(c2cccnc2Oc2ccc(C(F)(F)F)nc2)CC1 [Example 155, 1-(4-(2-((6-(trifluoromethyl)pyridin-3-yl)oxy)pyridin-3-yl)piperidin-1-yl)prop-2-en-1-one] |
| 0.132 | 0.0016 | 0.013 | C=CC(=O)N1CC=C(c2cccnc2Oc2cnc(C(F)(F)F)nc2)CC1 [Example 157, 1-(2-((2-(trifluoromethyl)pyrimidin-5-yl)oxy)-3′,6′-dihydro-[3,4′-bipyridin]-1′(2′H)-yl)prop-2-en-1-one] |
| 0.022 | 0.0018 | 0.051 | C=CC(=O)N1CCC(c2cccnc2Oc2cnc(C(F)(F)F)nc2)CC1 [Example 159, 1-(4-(2-((2-(trifluoromethyl)pyrimidin-5-yl)oxy)pyridin-3-yl)piperidin-1-yl)prop-2-en-1-one] |
| 0.02 | 0.0006 | 0.015 | C=CC(=O)N1CCC(n2nc(C)cc2C(=O)c2ccc(C(F)(F)F)cc2)CC1 [Example 166, 1-(4-(3-methyl-5-(4-(trifluoromethyl)benzoyl)-1H-pyrazol-1-yl)piperidin-1-yl)prop-2-en-1-one] |
| 0.034 | 0.00044 | 0.026 | N#C/C=C/C(=O)N1CCN(c2nccnc2Nc2ccc(C(F)(F)F)cc2)CC1 [Example 181, (E)-4-oxo-4-(4-(3-((4-(trifluoromethyl)phenyl)amino)pyrazin-2-yl)piperazin-1-yl)but-2-enenitrile] |
